Results published in patent US5334595A, “Pyrazoloquinolones as anticancer agents” (priority 1992, dated 1994).
Where two headings read alike, the source gives them in different places.

Tests used:
[1] = molecular target: T1, human topoisomerase II (Homo sapiens, UniProt P11388); assay: Mammalian topoisomerase II inhibition assay (topo II covalently attached to DNA, relative to mAMSA); assay type: biochemical; conditions: read-out: topo II inh. EC50
T1 construct: Topo II was purified from late log phase suspension cultures of HeLa WIS; endogenous in cells; host or cells: HeLa WIS
T1 sequence (P11388 whole entry): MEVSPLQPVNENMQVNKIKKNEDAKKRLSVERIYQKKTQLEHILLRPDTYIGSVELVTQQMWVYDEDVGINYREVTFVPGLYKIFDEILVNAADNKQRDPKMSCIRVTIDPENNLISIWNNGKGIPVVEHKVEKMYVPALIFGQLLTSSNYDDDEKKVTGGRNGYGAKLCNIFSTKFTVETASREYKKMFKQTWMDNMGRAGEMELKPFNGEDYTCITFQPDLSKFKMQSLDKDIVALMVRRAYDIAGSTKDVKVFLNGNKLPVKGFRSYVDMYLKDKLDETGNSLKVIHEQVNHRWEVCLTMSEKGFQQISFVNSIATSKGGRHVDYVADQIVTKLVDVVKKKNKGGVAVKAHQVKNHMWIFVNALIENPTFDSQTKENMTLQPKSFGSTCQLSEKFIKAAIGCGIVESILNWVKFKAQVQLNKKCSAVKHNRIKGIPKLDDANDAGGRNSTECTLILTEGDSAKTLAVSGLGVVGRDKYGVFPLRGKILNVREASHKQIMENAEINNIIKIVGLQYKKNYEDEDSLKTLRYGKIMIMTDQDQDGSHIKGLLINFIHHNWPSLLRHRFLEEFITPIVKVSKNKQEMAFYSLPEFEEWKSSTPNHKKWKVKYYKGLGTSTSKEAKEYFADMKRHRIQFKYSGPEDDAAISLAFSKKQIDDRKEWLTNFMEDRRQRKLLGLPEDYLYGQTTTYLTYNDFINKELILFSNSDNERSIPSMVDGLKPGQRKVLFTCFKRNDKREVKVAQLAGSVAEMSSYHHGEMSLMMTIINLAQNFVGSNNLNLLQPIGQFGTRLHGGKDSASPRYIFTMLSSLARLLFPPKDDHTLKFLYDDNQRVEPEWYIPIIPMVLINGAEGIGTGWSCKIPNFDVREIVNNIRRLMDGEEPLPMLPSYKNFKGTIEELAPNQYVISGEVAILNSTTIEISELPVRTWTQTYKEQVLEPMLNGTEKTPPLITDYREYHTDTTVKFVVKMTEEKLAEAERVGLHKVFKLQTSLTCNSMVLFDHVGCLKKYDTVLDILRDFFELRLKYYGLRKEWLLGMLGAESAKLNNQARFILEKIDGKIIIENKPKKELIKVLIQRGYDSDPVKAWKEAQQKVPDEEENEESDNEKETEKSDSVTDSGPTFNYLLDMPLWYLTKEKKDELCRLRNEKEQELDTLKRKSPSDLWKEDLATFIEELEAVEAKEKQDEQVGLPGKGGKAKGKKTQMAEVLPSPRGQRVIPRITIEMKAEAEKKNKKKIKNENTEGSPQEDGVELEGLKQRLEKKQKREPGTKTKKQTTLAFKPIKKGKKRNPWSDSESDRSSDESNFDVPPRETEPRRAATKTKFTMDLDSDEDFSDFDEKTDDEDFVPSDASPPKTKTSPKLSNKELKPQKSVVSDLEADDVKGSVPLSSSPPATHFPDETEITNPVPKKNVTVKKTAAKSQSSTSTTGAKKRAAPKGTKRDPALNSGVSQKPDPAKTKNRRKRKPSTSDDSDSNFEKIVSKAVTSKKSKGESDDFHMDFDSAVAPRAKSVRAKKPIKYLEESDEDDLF
Text: The inhibition of human topoisomerase II (hereafter topo II) was quantitated by a procedure adapted from that described by Trask et al., EMBO J., 3, 671-676 (1984). The assay quantitates the amount of topo II covalently attached to DNA at equilibrium during a topo II reaction. This assay determines the potential of a compound to stabilize this complex, which potential is closely related to the cytotoxicity of the compound.
Topo II was purified from late log phase suspension cultures of HeLa WIS by an adaptation of the method described by Per et al., Mol. Pharmacol., 32, 17-25 (1987).
Assays (in duplicate) were assembled at 4° C. Assay mix (25 μl) was distributed in Beckman (No. 265270) 1.5 mL microtiter tubes followed by the addition of 5 μl test compound to yield the final concentrations of assay components:
The assay mix including the test compound was incubated for 20 minutes at 37° C. The reaction was terminated at 37° C. by the addition of 3 μl 10% SDS followed by the addition of 266 μl 10 mM Tris-Cl pH 7.5, 20 μg/ml BSA, 20 μg/ml calf thymus DNA, 1% SDS.
A SDS/protein precipitate was formed by the addition of 28 μl 2.5M KCl followed by chilling on ice for a minimum of 10 minutes. The precipitate was collected and washed with a Brandell cell harvester on a GFB glass fiber filter membrane as follows. The contents of the assay tube were drawn up into the harvester. The tube was then rinsed 7× with 10 mM Tris-Cl pH 7.5, 1 mM EDTA and 100 mM KCl. The precipitate was washed with 1 L of a solution of 10 mM Tris-Cl pH 7.5, 1 mMEDTA, 100 mM KCl followed by 1 L of 95% ethyl alcohol and finally 0.5 L 70% of ethyl alcohol (per 48 samples in each case). After drying, CPM was determined by liquid scintillation counting with 5 ml Biofluor (NEN Research Products) or Readisafe (Beckman Instruments Inc.) cocktail.
Preparation of test compound--A stock solution (6 mg/ml) of test compound was prepared either in 0.1N sodium hydroxide or 0.2N hydrogen chloride. This solution then was diluted 1/5 into water and serially thereafter in either 0.02N sodium hydroxide or 0.04N hydrogen chloride, respectively. The stock solution and serial dilution of the test compound was stored at -20° C. prior to testing.
Screening of test compound--As an initial screen, the test compound was tested at a final concentration of 2, 20 and 200 μg/ml. The compound was then retested at a range of concentrations (usually 2-3×steps) bridging their approximate EC50 's, as estimated by the prescreen.
Controls--A solvent control which indicates the base level of topo II-DNA complex formed in the absence of the test compound was included in each test. A control, in which topo II was omitted, was included for each test compound at the highest drug concentration tested.
Reference Agent--A dose response curve with mAMSA at 0.01, 0.08, 0.16, 0.32, 1.0 and 10 μg/ml was included in each test.
The maximal DNA-topo II complex formed is taken as that equal to that formed at the nearly saturating dose of mAMSA (10 μg/ml).

[2] = In vivo antitumor assay, Colo38(sc); set-up: species or system mice; conditions: mouse, in vivo
Text: (§1) Mice: Inbred: C3H/He and NCR-nu; and Hybrids: B6D2F1 (C57BL/6 females×DBA/2 males, CD2F1 (Balb/c females×DBS/2 males) and B6C3fl (C57BL/6×C3H) were bred at Wayne State University from strains obtained from the Frederick Cancer Research Facility, Frederick, Maryland or purchased from commercial suppliers.
(§2) Tumors: Murine Tumor: P388 and an adriamycin-resistant (ADR) subline P388/ADR leukemia and the following transplantable solid tumors of mice were used for in vivo testing: B16 melanoma (B16), pancreatic ductal adenocarcinoma No. 03 (Pane 03), colon adenocarcinoma No. 38 (colo 38), lung carcinoma No. 12 (LC 12), mammary ductal adenocarcinoma No. 16/C (Mam16C) and an adriamycin-resistant subline Mam16C/ADR. Human tumor: A single human tumor, mammary carcinoma MX-1 was used for in vivo testing. All tumors are in the Developmental Therapeutics Program frozen tumor respository, maintained by the Biological Testing Branch, Frederick Maryland. Each has a detailed description, code identification number, and list of references at the National Tumor Repository. Murine tumors were maintained in the mouse strain of origin and were transplanted in the appropriate F1 hydrid (or the strain of origin) for therapy trials. Human mammary carcinoma MX-1 (MX1) was maintained as a subcutaneous implant in either athymic Swiss (Cr: NIH(S)-nu) or athymic random bred (NCR-nu) mice and transplanted in NCR-nu for therapy trials.
(§3) Chemotherapy: For pancreatic ductal adenocarcinoma No. 3, colon adenocarcinoma No. 38 (colo 38), lung carcinoma No. 12 LC 12) and both adriamycin-sensitive (RP) and-resistant (ADR) mammary ductal adenocarcinoma No. 16 (Mam16) tumors, bilateral tumor implants were used to help ensure a more uniform tumor burden per mouse (thus reducing the requirement for greater numbers of mice per group). The animals necessary to begin an experiment were pooled, implanted bilaterally s.c. on day zero with 30-60 mg tumor fragments using a 12-gauge trocar, and again pooled before randomization to the various treatment and control groups. Chemotherapy was started within three days after tumor implantation while the number of cells per mouse was relatively small (1×10^7 -1×10^8 cells).
(§4) Quantitative end points used to assess antitumor activity included % Increased Life Span (% ILS), Tumor Cell Kill (Log10 kill), and Tumor Growth Inhibition (T/C). Long Term Survivors (45 or 60 day) were excluded from calculations of %ILS and Tumor Cell Kill.
(§5) Tumors were measured with a caliper once or twice weekly (as needed) until either tumors exceeded 1600 mg or cure was assured. Tumor weights were estimated from two-dimensional measurements: Tumor Weight (mg)=(a×b^2) / 2, where a and b are the tumor length and width (ram) respectively. Measurements were carried out simultaneously in both treatment and control groups. When the control group tumors reached approximately 750-1500 mg in size (median of group), the median tumor weight of each group was determined (including zeros). The T/C value in percent is an indication of antitumor effectiveness. The % T/C was calculated from the following formula for solid murine tumor models: [formula] where T and C are median tumor weights of the treatment and control groups, respectively. […] A T/C value <10% is indicative of a high degree of antitumor activity and is the level used by National Cancer Institute to justify further development if other requirements are met (termed DN-2 level activity). By convention the T/C value for the mammary carcinoma MX-1 models is calculated by the parameter of change in tumor weight .

[3] = system: colon adenocarcinoma No. 38 (colo 38); assay: In vivo antitumor assay, Colo38(sc); set-up: species or system mice
Text: as §1, §2, §3, §4, §5

[4] = footnote c: bell-shaped dose response curve noted, 50% of maximal effect of mAMSA
[5] = drug iv, sc, iv, qd 3-16, exp 1038
[6] = conc. achieving 50% of maximal effect of mAMSA, topo II from HeLa cells
[7] = drug iv, qd 3-4, bid 5,6,12-17, exp 1036
[8] = drug iv,sc: iv, qd 3-9, sc, qd 11-19, exp 1163

## Cc1cc(-c2c(F)cc3c4nn(CCN(C)C)c(=O)c-4cn(C4CC4)c3c2F)cc(C)n1.O=C(O)/C=C/C(=O)O [Example 1, 5-Cyclopropyl-6,8-difluoro-2,5-dihydro-2-[2-(dimethylamino)-ethyl]-7-(2,6-dimethyl-4-pyridinyl)-3H-pyrazolo[4,3-c]quinolin-3-one (E)-2-butendioate (1:1)]
[1]; [4]
  EC50: 2600 nM
[2]; drug iv, qd 3,7,11, exp 1038
  MTD: 78 mg/kg
[2]; [5]
  MTD: 58 mg/kg
[3]; drug iv, qd 3,7,11, exp 1038
  Log Kill: 0.60
  T/C %: 14%
[3]; [5]
  Log Kill: 1.2
  T/C %: 0%

## Cc1cc(-c2c(F)cc3c4nn(CCCN(C)C)c(=O)c-4cn(C4CC4)c3c2F)cc(C)n1 [Example 14]
[1]; [6]
  EC50: 1700 nM
[2]; drug iv, qd 3,12-14, exp 905
  MTD: 133 mg/kg
[3]; drug iv, qd 3,12-14, exp 905
  Log Kill: 0.54
  T/C %: 38%

## Cc1cc(-c2c(F)cc3c4nn(CCNCCO)c(=O)c-4cn(C4CC4)c3c2F)cc(C)n1 [Example 17]
[1]; [4]
  EC50: 3300 nM

## Cc1cc(-c2c(F)cc3c4nn([C@H]5CC[C@@H](N(C)C)CC5)c(=O)c-4cn(C4CC4)c3c2F)cc(C)n1 [Example 51a]
[1]; [6]
  EC50: 1700 nM
[2]; [7]
  MTD: 63 mg/kg
[3]; [7]
  T/C %: 39%

## Cc1cc(-c2c(F)cc3c4nn([C@H]5CC[C@H](N(C)C)CC5)c(=O)c-4cn(C4CC4)c3c2F)cc(C)n1 [Example 51b]
[1]; [6]
  EC50: 4400 nM
[2]; drug iv, qd 3-4,15,17, bid 5.7, exp 1036, MTD not achieved, maximum dose tested
  MTD: > 220 mg/kg
[3]; drug iv, qd 3-4,15,17, bid 5.7, exp 1036
  T/C %: 13%

## Cc1cc(-c2c(F)cc3c4nn([C@H]5CC[C@@H](N)CC5)c(=O)c-4cn(C4CC4)c3c2F)cc(C)n1 [Example 56a, 2-(Cis-4-Aminocyclohexyl)-5-cyclopropyl-6,8-difluoro-2,5-dihydro-7-(2,6-dimethyl-4-pyridinyl)-3H-pyrazolo-[4,3-c]quinolin-3-one]
[1]; [6]
  EC50: 500 nM
[2]; [8]
  MTD: 137 mg/kg
[3]; [8]
  T/C %: 40%
